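Tested at 5 concentrations; 48 h exposure; 96-well plates; endpoints linearly interpolated, else capped at highest concentration. Here, GI50 denotes the concentration required for 50% inhibition of growth.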 Calls of active or inactive are those of the source. Rule as the data show it: active = GI50 up to about 1.1 µM and inactive = higher.
What was measured:
Assay in all cases: NCI anticancer screen, dose series, 48 h
HT-29 = system: HT-29
PC-3 = system: PC-3
SNB-75 = system: SNB-75
TK-10 = system: TK-10
MDA-MB-435 = system: MDA-MB-435
NCI/ADR-RES = system: NCI/ADR-RES
DU-145 = system: DU-145
HCT-116 = system: HCT-116
SF-268 = system: SF-268
RXF 393 = system: RXF 393
OVCAR-8 = system: OVCAR-8
HCC 2998 = system: HCC 2998
K562 = system: K562
NCI-H460 = system: NCI-H460
A549 = system: A549
Hs-578T = system: Hs-578T
A498 = system: A498
SF-295 = system: SF-295
SF-539 = system: SF-539
SNB-19 = system: SNB-19
SK-MEL-28 = system: SK-MEL-28
UACC-62 = system: UACC-62
SW-620 = system: SW-620
T47D = system: T47D
BT-549 = system: BT-549
OVCAR-5 = system: OVCAR-5
HL-60 = system: HL-60
HOP-62 = system: HOP-62
SK-OV-3 = system: SK-OV-3
OVCAR-3 = system: OVCAR-3
RPMI-8226 = system: RPMI-8226
HCT-15 = system: HCT-15
SK-MEL-5 = system: SK-MEL-5
SK-MEL-2 = system: SK-MEL-2
IGROV-1 = system: IGROV-1
U-251 = system: U-251
Malme-3M = system: Malme-3M
786-0 = system: 786-0
M14 = system: M14
COLO 205 = system: COLO 205
MOLT-4 = system: MOLT-4
UACC-257 = system: UACC-257
CCRF-CEM = system: CCRF-CEM
NCI-H226 = system: NCI-H226
NCI-H23 = system: NCI-H23
KM12 = system: KM12
SN12C = system: SN12C
HOP-92 = system: HOP-92
NCI-H522 = system: NCI-H522
OVCAR-4 = system: OVCAR-4
ACHN = system: ACHN
EKVX = system: EKVX
MDA-N = system: MDA-N
MDA-MB-231 = system: MDA-MB-231
UO-31 = system: UO-31
SR = system: SR
LOX IMVI = system: LOX IMVI
CAKI-1 = system: CAKI-1
MCF7 = system: MCF7

SMILES: CN(C)CCNC1=C(Cl)C(=O)c2c(O)ccc(O)c2C1=O
- GI50 (HT-29): 1.85 µM (inactive)
- GI50 (PC-3): 6.31 µM (inactive)
- GI50 (SNB-75): 2.99 µM (inactive)
- GI50 (TK-10): 2.33 µM (inactive)
- GI50 (MDA-MB-435): 1.71 µM (inactive)
- GI50 (NCI/ADR-RES): 3.12 µM (inactive)
- GI50 (DU-145): 1.94 µM (inactive)
- GI50 (HCT-116): 1.91 µM (inactive)
- GI50 (SF-268): 17.1 µM (inactive)
- GI50 (RXF 393): 4.34 µM (inactive)
- GI50 (OVCAR-8): 1.9 µM (inactive)
- GI50 (HCC 2998): 1.79 µM (inactive)
- GI50 (K562): 2.76 µM (inactive)
- GI50 (NCI-H460): 1.95 µM (inactive)
- GI50 (A549): 2.58 µM (inactive)
- GI50 (Hs-578T): 2.99 µM (inactive)
- GI50 (A498): 3.39 µM (inactive)
- GI50 (SF-295): 2.12 µM (inactive)
- GI50 (SF-539): 1.73 µM (inactive)
- GI50 (SNB-19): 1.95 µM (inactive)
- GI50 (SK-MEL-28): 2.12 µM (inactive)
- GI50 (UACC-62): 1.85 µM (inactive)
- GI50 (SW-620): 2.02 µM (inactive)
- GI50 (T47D): 2.08 µM (inactive)
- GI50 (BT-549): 1.72 µM (inactive)
- GI50 (OVCAR-5): 1.74 µM (inactive)
- GI50 (HL-60): 2.38 µM (inactive)
- GI50 (HOP-62): 1.95 µM (inactive)
- GI50 (SK-OV-3): 18.2 µM (inactive)
- GI50 (OVCAR-3): 1.98 µM (inactive)
- GI50 (RPMI-8226): 2.65 µM (inactive)
- GI50 (HCT-15): 2.51 µM
- GI50 (SK-MEL-5): 1.54 µM (inactive)
- GI50 (SK-MEL-2): 2.1 µM (inactive)
- GI50 (IGROV-1): 1.6 µM (inactive)
- GI50 (U-251): 1.84 µM (inactive)
- GI50 (Malme-3M): 2.09 µM (inactive)
- GI50 (786-0): 2.08 µM (inactive)
- GI50 (M14): 1.95 µM (inactive)
- GI50 (COLO 205): 1.93 µM (inactive)
- GI50 (MOLT-4): 2.88 µM (inactive)
- GI50 (UACC-257): 1.72 µM (inactive)
- GI50 (CCRF-CEM): 2.01 µM (inactive)
- GI50 (NCI-H226): 23.6 µM (inactive)
- GI50 (NCI-H23): 2.18 µM (inactive)
- GI50 (KM12): 1.82 µM (inactive)
- GI50 (SN12C): 1.89 µM (inactive)
- GI50 (HOP-92): 2.17 µM (inactive)
- GI50 (NCI-H522): 1.79 µM (inactive)
- GI50 (OVCAR-4): 1.87 µM (inactive)
- GI50 (ACHN): 3.5 µM (inactive)
- GI50 (EKVX): 2.97 µM (inactive)
- GI50 (MDA-N): 2.59 µM (inactive)
- GI50 (MDA-MB-231): 1.38 µM (inactive)
- GI50 (UO-31): 2.02 µM (inactive)

SMILES: CCOc1cc2c(cc1O)C(N)C[C@@H]1[C@@H]2CC[C@]2(C)[C@@H](O)CC[C@@H]12 (stereo partly specified)
- GI50 (HT-29): 42.7 µM (inactive)
- GI50 (PC-3): 34.4 µM (inactive)
- GI50 (SNB-75): 15 µM (inactive)
- GI50 (SR): 15.2 µM (inactive)
- GI50 (TK-10): 83 µM (inactive)
- GI50 (NCI/ADR-RES): > 100 µM (inactive)
- GI50 (SF-268): 61.7 µM (inactive)
- GI50 (RXF 393): 56.5 µM (inactive)
- GI50 (OVCAR-8): 83.2 µM (inactive)
- GI50 (LOX IMVI): 34.2 µM (inactive)
- GI50 (HCC 2998): 36.7 µM (inactive)
- GI50 (K562): 18.8 µM (inactive)
- GI50 (NCI-H460): 37.6 µM (inactive)
- GI50 (Hs-578T): 54.7 µM (inactive)
- GI50 (A498): 34.8 µM (inactive)
- GI50 (SF-295): 32.7 µM (inactive)
- GI50 (SF-539): > 10 µM (inactive)
- GI50 (SNB-19): 46.7 µM (inactive)
- GI50 (SK-MEL-28): 42.8 µM (inactive)
- GI50 (SW-620): 34 µM (inactive)
- GI50 (T47D): 84.1 µM (inactive)
- GI50 (BT-549): 40.9 µM (inactive)
- GI50 (OVCAR-5): > 100 µM (inactive)
- GI50 (HL-60): 18.6 µM (inactive)
- GI50 (HOP-62): 46.7 µM (inactive)
- GI50 (HCT-15): 45.7 µM
- GI50 (SK-MEL-5): 30.2 µM (inactive)
- GI50 (SK-MEL-2): 41.1 µM (inactive)
- GI50 (IGROV-1): 52.6 µM (inactive)
- GI50 (U-251): 37.9 µM (inactive)
- GI50 (786-0): 40.3 µM (inactive)
- GI50 (CAKI-1): 32.9 µM (inactive)
- GI50 (M14): 26.9 µM (inactive)
- GI50 (COLO 205): 52.7 µM (inactive)
- GI50 (MOLT-4): 33.3 µM (inactive)
- GI50 (UACC-257): 38.6 µM (inactive)
- GI50 (CCRF-CEM): 22.6 µM (inactive)
- GI50 (NCI-H226): 92.7 µM (inactive)
- GI50 (NCI-H23): 49.5 µM (inactive)
- GI50 (KM12): 43.7 µM (inactive)
- GI50 (HOP-92): 25.6 µM (inactive)
- GI50 (NCI-H522): 33.5 µM (inactive)
- GI50 (OVCAR-4): 30.8 µM (inactive)
- GI50 (ACHN): 34.8 µM (inactive)
- GI50 (EKVX): 80.9 µM (inactive)
- GI50 (MCF7): 40.8 µM (inactive)
- GI50 (MDA-N): 23.4 µM (inactive)
- GI50 (MDA-MB-231): 83.9 µM (inactive)
- GI50 (UO-31): 36.9 µM (inactive)

SMILES: CN(C(=O)c1cc2c(s1)sc1c(=O)n(C)c3ccccc3c12)c1ccccc1
- GI50 (HT-29): 2.77 µM (inactive)
- GI50 (PC-3): 4.68 µM (inactive)
- GI50 (SNB-75): 4.33 µM (inactive)
- GI50 (SR): 1.93 µM (inactive)
- GI50 (TK-10): 24.7 µM (inactive)
- GI50 (MDA-MB-435): 0.828 µM (active)
- GI50 (NCI/ADR-RES): 4.54 µM (inactive)
- GI50 (DU-145): 69.8 µM (inactive)
- GI50 (HCT-116): 4.93 µM (inactive)
- GI50 (RXF 393): 21.8 µM (inactive)
- GI50 (OVCAR-8): 11.2 µM (inactive)
- GI50 (LOX IMVI): 18.5 µM (inactive)
- GI50 (HCC 2998): 4.66 µM (inactive)
- GI50 (K562): 2.51 µM (inactive)
- GI50 (NCI-H460): 2.43 µM (inactive)
- GI50 (A549): 8.55 µM (inactive)
- GI50 (SF-295): 2.25 µM (inactive)
- GI50 (SF-539): 5.45 µM (inactive)
- GI50 (SNB-19): 31.3 µM (inactive)
- GI50 (SK-MEL-28): > 100 µM (inactive)
- GI50 (UACC-62): 6.03 µM (inactive)
- GI50 (T47D): 28.8 µM (inactive)
- GI50 (BT-549): > 100 µM (inactive)
- GI50 (OVCAR-5): 63.7 µM (inactive)
- GI50 (SK-OV-3): 22.2 µM (inactive)
- GI50 (OVCAR-3): 7.83 µM (inactive)
- GI50 (HCT-15): 1.72 µM
- GI50 (SK-MEL-5): 3.56 µM (inactive)
- GI50 (SK-MEL-2): 3.77 µM (inactive)
- GI50 (IGROV-1): 4.37 µM (inactive)
- GI50 (U-251): 10.9 µM (inactive)
- GI50 (Malme-3M): 6.56 µM (inactive)
- GI50 (786-0): 5.27 µM (inactive)
- GI50 (CAKI-1): 7.41 µM (inactive)
- GI50 (M14): 50.9 µM (inactive)
- GI50 (COLO 205): > 100 µM (inactive)
- GI50 (MOLT-4): 3.63 µM (inactive)
- GI50 (UACC-257): 29.4 µM (inactive)
- GI50 (CCRF-CEM): 2.74 µM (inactive)
- GI50 (NCI-H226): 5.48 µM (inactive)
- GI50 (NCI-H23): 7.73 µM (inactive)
- GI50 (KM12): 0.729 µM (active)
- GI50 (SN12C): 34.8 µM (inactive)
- GI50 (HOP-92): 42.4 µM (inactive)
- GI50 (NCI-H522): 4.41 µM (inactive)
- GI50 (OVCAR-4): 42.7 µM (inactive)
- GI50 (ACHN): 5.46 µM (inactive)
- GI50 (EKVX): 16.7 µM (inactive)
- GI50 (MCF7): 0.501 µM (active)
- GI50 (MDA-N): 0.61 µM (active)
- GI50 (MDA-MB-231): 24.8 µM (inactive)
- GI50 (UO-31): 6.7 µM (inactive)
